Results as given in patent publication US6504058B1 (priority 1997, dated 2003).
Read-outs that look alike come from different tables or passages of the source.

Experiments:
Pyricularia oryzae = format: in vivo, Pyricularia oryzae (on rice seedlings); settings: 100 = 100% disease control, 0 = no control, # = significant activity
[1] = system: Erysiphe graminis f. sp. tritici; assay: Test A: wheat powdery mildew, preventive spray on wheat seedlings, disease rating; format: in vivo, Erysiphe graminis f. sp. tritici (on wheat seedlings); settings: 200 ppm test suspension sprayed to run-off (equivalent to 500 g/ha) on wheat seedlings; 100 = 100% disease control, 0 = no control; # = significant activity
Text: (§1) Test compounds were first dissolved in acetone in an amount equal to 3% of the final volume and then suspended at a concentration of 200 ppm in purified water containing 250 ppm of the surfactant Trem® 014 (polyhydric alcohol esters). The resulting test suspensions were then used in the following test. Spraying these 200 ppm test suspensions to the point of run-off on the test plants is the equivalent of a rate of 500 g/ha.
The test suspension was sprayed to the point of run-off on wheat seedlings. The following day the seedlings were inoculated with a spore dust of Erysiphe graminis f. sp. tritici, (the causal agent of wheat powdery mildew) and incubated in a growth chamber at 20° C. for 7 days, after which disease ratings were made.
(§2) Results for Tests A-E are given in Table A. In the table, a rating of 100 indicates 100% disease control and a rating of 0 indicates no disease control (relative to the controls). A dash (-) indicates no test results. ND indicates disease control not determined due to phytotoxicity. # indicates significant activity.

Puccinia recondita = assay: Test B: wheat leaf rust, preventive spray on wheat seedlings, disease rating; format: in vivo, Puccinia recondita (on wheat seedlings); settings: 200 ppm test suspension sprayed to run-off (equivalent to 500 g/ha) on wheat seedlings; 100 = 100% disease control, 0 = no control; # = significant activity
Text: as §1
(§3) The test suspension was sprayed to the point of run-off on wheat seedlings. The following day the seedlings were inoculated with a spore suspension of Puccinia recondita (the causal agent of wheat leaf rust) and incubated in a saturated atmosphere at 20° C. for 24 h, and then moved to a growth chamber at 20° C. for 6 days, after which disease ratings were made.
as §2

Phytophthora infestans = format: in vivo, Phytophthora infestans (on tomato seedlings); settings: 200 ppm test suspension sprayed to run-off (equivalent to 500 g/ha) on tomato seedlings; 100 = 100% disease control, 0 = no control; # = significant activity
Botrytis cinerea = assay: Test E: gray mold, preventive spray on cucumber seedlings, disease rating; format: in vivo, Botrytis cinerea (on cucumber seedlings); settings: 200 ppm test suspension sprayed to run-off (equivalent to 500 g/ha) on cucumber seedlings; 100 = 100% disease control, 0 = no control; # = significant activity
Text: as §1
as §3, with “cucumber” for “wheat”, “Botrytis cinerea” for “Puccinia recondita”, “gray mold on many crops)” for “wheat leaf rust)”, “48” for “24”, “and” for “and then”, “5” for “6”
as §2

[2] = 200 ppm test suspension sprayed to run-off (equivalent to 500 g/ha) on rice seedlings
[3] = Tested at 40 ppm, rice seedlings

| Compound | Test C disease control rating (rice blast) (Pyricularia oryzae; [2]) | Test A disease control rating (wheat powdery mildew) [1] | Test B disease control rating (wheat leaf rust) (Puccinia recondita) | Test D disease control rating (potato and tomato late blight) (Phytophthora infestans) | Test E disease control rating (gray mold) (Botrytis cinerea) | Test C disease control rating (rice blast) (Pyricularia oryzae; [3]) |
| --- | --- | --- | --- | --- | --- | --- |
| CC(NC(=O)C1(C(F)(F)F)CC(C)(Cl)C1)c1ccc(Br)cc1 (mixture of isomers) [compound 1] | 100# (a rating of 100 indicates 100% disease control) | – | – | – | – | – |
| CC(CCc1ccccc1)NC(=O)C1(C(F)(F)F)CC(C)(Cl)C1 (mixture of isomers) [compound 2] | 64# % | – | – | – | – | – |
| CC(NC(=O)C1(C(F)(F)F)CC(C)(Cl)C1)c1ccc(Cl)cc1 (centres unmarked) [Compound 7] | 100# (a rating of 100 indicates 100% disease control) | – | – | – | – | – |
| CC(COc1cc(F)ccc1F)NC(=O)C1(C)CC(C)(Cl)C1 (centres unmarked) [Compound 30] | 100# (a rating of 100 indicates 100% disease control) | 0 (a rating of 0 indicates no disease control (relative to the controls)) | 0 (a rating of 0 indicates no disease control (relative to the controls)) | 0 (a rating of 0 indicates no disease control (relative to the controls)) | 94# % | – |
| CC(NC(=O)C1(C(F)(F)F)CC(C)(Cl)C1)c1ccc(Br)cc1 (centres unmarked) [compound 4] | 100# (a rating of 100 indicates 100% disease control) | – | – | – | – | – |
| CC(NC(=O)C1(C(F)(F)F)CC(C)(Cl)C1)c1ccc(Br)cc1 (centres unmarked) [compound 5] | 100# (a rating of 100 indicates 100% disease control) | – | – | – | – | – |
| CC(NC(=O)C1(C(F)(F)F)CC(C)(Cl)C1)c1ccc(Cl)cc1 (centres unmarked) [compound 6] | 98# % | – | – | – | – | – |
| CC(NC(=O)C1(C(F)(F)F)CC(C)(Cl)C1)c1ccc(Cl)cc1Cl (centres unmarked) [compound 8] | 100# (a rating of 100 indicates 100% disease control) | 0 (a rating of 0 indicates no disease control (relative to the controls)) | 0 (a rating of 0 indicates no disease control (relative to the controls)) | 24% | 0 (a rating of 0 indicates no disease control (relative to the controls)) | – |
| CC(NC(=O)C1(C(F)(F)F)CC(C)(Cl)C1)c1ccc(Cl)cc1Cl (centres unmarked) [compound 9] | 100# (a rating of 100 indicates 100% disease control) | 0 (a rating of 0 indicates no disease control (relative to the controls)) | 0 (a rating of 0 indicates no disease control (relative to the controls)) | 0 (a rating of 0 indicates no disease control (relative to the controls)) | 0 (a rating of 0 indicates no disease control (relative to the controls)) | – |
| CC(NC(=O)C1CC(C)(Cl)C1)c1ccc(Br)cc1 (centres unmarked) [compound 10] | 53% | 74% | 0 (a rating of 0 indicates no disease control (relative to the controls)) | 42% | 0 (a rating of 0 indicates no disease control (relative to the controls)) | – |
| CC(NC(=O)C1CC(C)(Cl)C1)c1ccc(Br)cc1 (centres unmarked) [compound 11] | 53% | 57% | 0 (a rating of 0 indicates no disease control (relative to the controls)) | 60% | 0 (a rating of 0 indicates no disease control (relative to the controls)) | – |
| CC(NC(=O)C1(Cl)CC(Cl)(Cl)C1)c1ccc(Br)cc1 (centres unmarked) [compound 12] | 100# (a rating of 100 indicates 100% disease control) | 99% | 0 (a rating of 0 indicates no disease control (relative to the controls)) | 11% | 0 (a rating of 0 indicates no disease control (relative to the controls)) | – |
| CC(NC(=O)C1(C)CC(C)(Cl)C1)c1ccc(Br)cc1 (centres unmarked) [compound 13] | 94# % | 0 (a rating of 0 indicates no disease control (relative to the controls)) | 0 (a rating of 0 indicates no disease control (relative to the controls)) | 0 (a rating of 0 indicates no disease control (relative to the controls)) | 0 (a rating of 0 indicates no disease control (relative to the controls)) | – |
| CC(NC(=O)C1(C)CC(C)(Cl)C1)c1ccc(Br)cc1 (centres unmarked) [compound 14] | 97# % | 0 (a rating of 0 indicates no disease control (relative to the controls)) | 0 (a rating of 0 indicates no disease control (relative to the controls)) | 0 (a rating of 0 indicates no disease control (relative to the controls)) | 0 (a rating of 0 indicates no disease control (relative to the controls)) | – |
| CC(NC(=O)C1(Cl)CC(C)(Cl)C1)c1ccc(Br)cc1 (centres unmarked) [compound 15] | – | – | – | – | – | 94#* % |
| CC(NC(=O)C1(Cl)CC(C)(Cl)C1)c1ccc(Br)cc1 (centres unmarked) [compound 16] | – | – | – | – | – | 98#* % |
| CC(NC(=O)C1(C)CC(C)(Br)C1)c1ccc(Br)cc1 (centres unmarked) [compound 17] | 74% | 0 (a rating of 0 indicates no disease control (relative to the controls)) | 0 (a rating of 0 indicates no disease control (relative to the controls)) | 0 (a rating of 0 indicates no disease control (relative to the controls)) | 0 (a rating of 0 indicates no disease control (relative to the controls)) | – |
| CC(NC(=O)C1(C)CC(C)(Br)C1)c1ccc(Br)cc1 (centres unmarked) [compound 18] | 99# % | 0 (a rating of 0 indicates no disease control (relative to the controls)) | 0 (a rating of 0 indicates no disease control (relative to the controls)) | 0 (a rating of 0 indicates no disease control (relative to the controls)) | 0 (a rating of 0 indicates no disease control (relative to the controls)) | – |
| CC(NC(=O)C1(C)CC(C)(Cl)C1)c1ccc(Cl)cc1Cl (centres unmarked) [compound 19] | 100# (a rating of 100 indicates 100% disease control) | 33% | 0 (a rating of 0 indicates no disease control (relative to the controls)) | 0 (a rating of 0 indicates no disease control (relative to the controls)) | 0 (a rating of 0 indicates no disease control (relative to the controls)) | – |
| CC(NC(=O)C1(C)CC(C)(Cl)C1)c1ccc(Cl)cc1Cl (centres unmarked) [compound 20] | 100# (a rating of 100 indicates 100% disease control) | 59% | 0 (a rating of 0 indicates no disease control (relative to the controls)) | 0 (a rating of 0 indicates no disease control (relative to the controls)) | 0 (a rating of 0 indicates no disease control (relative to the controls)) | – |
| CC(COc1ccccc1F)NC(=O)C1(C(F)(F)F)CC(C)(Cl)C1 (centres unmarked) [compound 25] | 97# % | – | – | – | – | – |
| CC(COc1ccccc1F)NC(=O)C1(C(F)(F)F)CC(C)(Cl)C1 (centres unmarked) [compound 26] | 100# (a rating of 100 indicates 100% disease control) | – | – | – | – | – |
| (R)-N-[1-(4-bromophenyl)ethyl]-3,3-difluoro-1-methylcyclobutanecarboxamide [Example 3] | 82# % | – | – | – | – | – |
